ChEMBL document CHEMBL1201862, “PubChem BioAssay data set” (2004)
Calls of active or inactive are those of the source.

Columns and labels:
Albumin = Albumin (Bos taurus, UniProt P02769); assay: Counterscreen for inhibitors of T-cell receptor (TCR)-CD3 interaction: Fluorescence-based biochemical high throughput dose response assay to identify inhibitors of T-cell receptor (TCR)-CD3 interaction using a TAMRA-labeled BSA probe.; type: functional
[1] = Luminescence-based dose response cell-based high throughput screening assay for cytotoxic compounds using the IEC-6 intestinal epithelial cell line. [Related pubchem assays: 1858 (Summary AID.), 1825 (Counterscreen.), 1907 (Confirmation screen.)]; type: functional
[2] = PAX5 cellular inhibition readout – cell-based, plate reader, dry powder samples, selectivity assay for PAX8 inhibitor project, dose response (AID 743047); type: functional;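 note: HEK293 cells carrying a Pax5 driven CD19 promoter luciferase reporter; potency of inhibitors that lower reporter luminescence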
[3] = IGROV1 cell killing – plate reader, dry powder samples, PAX8 inhibitor project, dose response (AID 743043); type: functional, cell-based; settings: IGROV-1
[4] = OVCAR4 cell viability loss – plate reader, dry powder, SA11, cytotoxicity control for PAX8 inhibitor project, dose response (AID 743150); type: functional, cell-based; settings: OVCAR-4
[5] = OVCAR-3 cell viability loss – plate reader, dry powder samples, PAX8 inhibitor project, dose response (AID 743044); type: functional, cell-based
BJ [6] = assay: BJ-TERT fibroblast viability loss – cell-based, RAS-independent, luminescence, dose response (AID 1933); type: functional; settings: Homo sapiens
[7] = COV434 cell viability loss – plate reader, dry powder, SA7, cytotoxicity control for PAX8 inhibitor project, dose response (AID 743145); type: functional, cell-based
[8] = DRD fibroblast viability loss – cell-based, non-viral oncogenic, luminescence, dose response (AID 1934); type: functional; settings: Homo sapiens
[9] = luciferase reporter signal suppression in cells – H4 neuroglioma cells, luminescence, dose response (AID 1990); type: functional, cell-based
[10] = inhibitors acting on PAX2 in cells – cell-based, plate reader, dry powder samples, selectivity assay for PAX8 inhibitor project, dose response (AID 743048); type: functional;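 note: HEK293 cells carrying a WT1 promoter luciferase reporter driven by expressed Pax2; potency is for inhibition of Pax2 driven reporter signal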
BJ [11] = assay: growth inhibition of engineered Ras-driven BJ cells – cell-based, alamar blue fluorescence, cherrypicked samples, dose response (AID 2631); type: functional; settings: Homo sapiens;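 note: confirmatory dose-response assay in RAS-dependent BJ fibroblasts engineered with TERT, LT and ST, with cytotoxicity read by fluorescence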
[12] = toxicity toward immortalized ovarian surface epithelium – cell-based, plate reader, dry powder samples, cytotoxicity control for PAX8 inhibitor project, dose response (AID 743045); type: functional
[13] = alpha-synuclein stem-loop luciferase translation blockers – H4 neuroglioma cells, luminescence, confirmation (AID 1988); type: functional, cell-based
BJ [14] = assay: cells; type: functional, cell-based; settings: Homo sapiens
[15] = Luminescence Cell-Based Dose Response HTS to Identify Inhibitors of 5'UTR Stem-Loop Driven Prion Protein mRNA Translation in H4 Neuroglioblastoma Cells. [Related pubchem assays: 1827 (Project Summary), 1813 (Primary HTS)]; type: functional
[16] = OV-90 cell viability loss – plate reader, dry powder, SA8, PAX8 inhibitor project, dose response (AID 743149); type: functional, cell-based
Paired box protein Pax-8 = Paired box protein Pax-8 (Homo sapiens, UniProt Q06710); assay: PAX8 transcriptional activity inhibition in RMG-I – RMG-I cells, luciferase, cherry-pick, dose response (AID 687027); type: functional, cell-based;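 note: luciferase reporter driven by Pax8 target thyroperoxidase promoter measured by SteadyGlo luminescence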
Paired box protein Pax-8, sequence (Q06710 whole entry): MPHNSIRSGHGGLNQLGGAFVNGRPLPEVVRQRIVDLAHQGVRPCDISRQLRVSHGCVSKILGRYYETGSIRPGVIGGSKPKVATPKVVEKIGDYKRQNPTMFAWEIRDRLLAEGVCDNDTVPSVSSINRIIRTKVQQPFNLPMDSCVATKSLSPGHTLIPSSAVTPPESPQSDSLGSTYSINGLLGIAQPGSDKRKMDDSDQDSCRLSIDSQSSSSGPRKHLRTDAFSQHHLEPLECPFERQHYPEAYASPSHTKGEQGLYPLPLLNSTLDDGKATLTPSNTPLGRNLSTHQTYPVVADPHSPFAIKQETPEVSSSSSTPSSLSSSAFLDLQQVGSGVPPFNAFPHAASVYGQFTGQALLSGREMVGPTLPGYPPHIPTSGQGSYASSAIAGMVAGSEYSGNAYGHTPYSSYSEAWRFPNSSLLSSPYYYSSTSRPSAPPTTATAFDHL

BJ [17] = assay: BJ-TERT-LT-ST fibroblast viability loss – cell-based, RAS-independent, luminescence, dose response (AID 1935); type: functional; settings: Homo sapiens;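 note: BJ fibroblasts immortalized with TERT plus LT and ST oncogenes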
[18] = COV362 cell viability loss – plate reader, dry powder, SA12, cytotoxicity control for PAX8 inhibitor project, dose response (AID 743144); type: functional, cell-based
[19] = PAX8-dependent cell viability loss – plate reader, dry powder, dose response (AID 743049); type: functional, cell-based
[20] = A2780 cell killing – plate reader, dry powder samples, cytotoxicity control, dose response (AID 743046); type: functional, cell-based
[21] = kidney cell line viability loss – HEK293T, luminescence plate reader, powder samples, set 4, cytotoxicity control, dose response (AID 651863); type: functional, cell-based; settings: HEK293
[22] = cervical cancer cell viability loss – HeLa, 24 h, plate reader, powder samples, set 3, cytotoxicity control, dose response (AID 651864); type: functional, cell-based
[23] = loss of viability in HeLa cells – cell-based, ATP luminescence, dry powder, cytotoxicity control, dose response (AID 652117); type: functional
[24] = biological target: Protein disulfide-isomerase A6 (Homo sapiens, UniProt Q15084); assay: Secondary Assay for Selectivity of PDI Inhibitors (against ERp5) Measured in Biochemical System Using Plate Reader - 2137-04_Inhibitor_Dose_DryPowder_Activity_Set3.
Protein disulfide-isomerase A6, sequence (Q15084 whole entry): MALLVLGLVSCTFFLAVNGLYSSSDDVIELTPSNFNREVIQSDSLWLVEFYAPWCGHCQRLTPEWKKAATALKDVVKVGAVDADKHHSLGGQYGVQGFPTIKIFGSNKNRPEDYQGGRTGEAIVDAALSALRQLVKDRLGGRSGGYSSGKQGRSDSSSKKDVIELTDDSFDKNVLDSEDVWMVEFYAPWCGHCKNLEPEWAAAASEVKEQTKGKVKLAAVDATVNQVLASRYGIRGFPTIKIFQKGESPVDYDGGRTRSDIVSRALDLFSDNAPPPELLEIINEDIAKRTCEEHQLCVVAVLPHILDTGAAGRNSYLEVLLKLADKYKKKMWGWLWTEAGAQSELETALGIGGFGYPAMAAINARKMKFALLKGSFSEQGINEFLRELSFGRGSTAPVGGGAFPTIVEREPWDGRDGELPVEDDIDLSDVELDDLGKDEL

[25] = biological target: Protein disulfide-isomerase (Homo sapiens, UniProt P07237); assay: inhibition of PDI-mediated insulin reduction – biochemical, turbidity, dry powder samples, set 2, confirmation (AID 652146)
Protein disulfide-isomerase, sequence (P07237 whole entry): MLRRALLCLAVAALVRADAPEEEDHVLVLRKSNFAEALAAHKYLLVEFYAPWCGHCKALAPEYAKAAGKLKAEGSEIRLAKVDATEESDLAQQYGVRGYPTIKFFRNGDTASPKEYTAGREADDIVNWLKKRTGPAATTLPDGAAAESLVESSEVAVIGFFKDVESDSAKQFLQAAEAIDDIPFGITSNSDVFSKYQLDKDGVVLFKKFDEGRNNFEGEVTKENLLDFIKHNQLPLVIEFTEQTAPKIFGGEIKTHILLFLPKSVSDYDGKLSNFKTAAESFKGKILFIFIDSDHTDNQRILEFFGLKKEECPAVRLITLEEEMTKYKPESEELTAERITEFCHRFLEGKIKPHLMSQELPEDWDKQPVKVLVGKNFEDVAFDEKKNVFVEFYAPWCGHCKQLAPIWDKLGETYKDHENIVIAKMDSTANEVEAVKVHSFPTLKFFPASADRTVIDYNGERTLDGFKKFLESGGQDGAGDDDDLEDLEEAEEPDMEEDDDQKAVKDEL

[26] = biological target: Metabotropic glutamate receptor 3 (Rattus norvegicus, UniProt P31422); assay: inhibition of rat mGlu3 glutamate signaling – HEK/GIRK cells, thallium flux, dose response (AID 651839); type: functional
Metabotropic glutamate receptor 3, sequence (P31422 whole entry): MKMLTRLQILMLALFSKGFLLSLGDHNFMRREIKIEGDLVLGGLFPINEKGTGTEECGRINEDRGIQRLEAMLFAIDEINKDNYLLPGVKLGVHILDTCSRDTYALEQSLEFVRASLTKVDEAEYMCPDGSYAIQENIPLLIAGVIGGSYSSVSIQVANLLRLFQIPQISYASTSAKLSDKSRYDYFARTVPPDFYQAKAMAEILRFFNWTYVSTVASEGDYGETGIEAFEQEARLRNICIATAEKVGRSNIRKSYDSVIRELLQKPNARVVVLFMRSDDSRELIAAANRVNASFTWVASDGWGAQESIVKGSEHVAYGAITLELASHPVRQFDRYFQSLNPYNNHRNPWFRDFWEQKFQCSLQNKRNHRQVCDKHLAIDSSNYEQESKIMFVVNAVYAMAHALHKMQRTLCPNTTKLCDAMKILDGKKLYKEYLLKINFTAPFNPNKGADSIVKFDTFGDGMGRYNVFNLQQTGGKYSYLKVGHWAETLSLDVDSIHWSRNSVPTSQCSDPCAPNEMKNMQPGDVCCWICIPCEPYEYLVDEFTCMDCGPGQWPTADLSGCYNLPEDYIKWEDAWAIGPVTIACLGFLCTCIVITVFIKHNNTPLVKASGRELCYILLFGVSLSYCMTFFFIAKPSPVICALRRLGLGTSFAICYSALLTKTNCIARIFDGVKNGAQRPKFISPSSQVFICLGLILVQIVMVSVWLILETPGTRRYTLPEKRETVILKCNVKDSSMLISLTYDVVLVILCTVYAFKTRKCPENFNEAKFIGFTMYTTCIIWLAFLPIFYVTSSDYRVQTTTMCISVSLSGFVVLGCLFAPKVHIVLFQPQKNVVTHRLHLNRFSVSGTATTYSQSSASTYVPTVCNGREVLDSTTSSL

P388/ADR = assay: cells; type: functional; settings: Mus musculus
[27] = HepG2 cell cytotoxicity, dose response, cytotoxicity control for non-replicating M. tuberculosis project (AID 489018); type: functional; settings: Mycobacterium tuberculosis
[28] = biological target: T1, Eukaryotic translation initiation factor 2-alpha kinase 3 (Homo sapiens, UniProt Q9NZJ5); assay: Counterscreen assay for PERK inhibitors: Dose response cell-based high throughput screening assay to measure inhibition of PERK at 6 hours. [Related pubchem assays: 1522, 1416 ]; type: functional
T1 sequence (Q9NZJ5 whole entry): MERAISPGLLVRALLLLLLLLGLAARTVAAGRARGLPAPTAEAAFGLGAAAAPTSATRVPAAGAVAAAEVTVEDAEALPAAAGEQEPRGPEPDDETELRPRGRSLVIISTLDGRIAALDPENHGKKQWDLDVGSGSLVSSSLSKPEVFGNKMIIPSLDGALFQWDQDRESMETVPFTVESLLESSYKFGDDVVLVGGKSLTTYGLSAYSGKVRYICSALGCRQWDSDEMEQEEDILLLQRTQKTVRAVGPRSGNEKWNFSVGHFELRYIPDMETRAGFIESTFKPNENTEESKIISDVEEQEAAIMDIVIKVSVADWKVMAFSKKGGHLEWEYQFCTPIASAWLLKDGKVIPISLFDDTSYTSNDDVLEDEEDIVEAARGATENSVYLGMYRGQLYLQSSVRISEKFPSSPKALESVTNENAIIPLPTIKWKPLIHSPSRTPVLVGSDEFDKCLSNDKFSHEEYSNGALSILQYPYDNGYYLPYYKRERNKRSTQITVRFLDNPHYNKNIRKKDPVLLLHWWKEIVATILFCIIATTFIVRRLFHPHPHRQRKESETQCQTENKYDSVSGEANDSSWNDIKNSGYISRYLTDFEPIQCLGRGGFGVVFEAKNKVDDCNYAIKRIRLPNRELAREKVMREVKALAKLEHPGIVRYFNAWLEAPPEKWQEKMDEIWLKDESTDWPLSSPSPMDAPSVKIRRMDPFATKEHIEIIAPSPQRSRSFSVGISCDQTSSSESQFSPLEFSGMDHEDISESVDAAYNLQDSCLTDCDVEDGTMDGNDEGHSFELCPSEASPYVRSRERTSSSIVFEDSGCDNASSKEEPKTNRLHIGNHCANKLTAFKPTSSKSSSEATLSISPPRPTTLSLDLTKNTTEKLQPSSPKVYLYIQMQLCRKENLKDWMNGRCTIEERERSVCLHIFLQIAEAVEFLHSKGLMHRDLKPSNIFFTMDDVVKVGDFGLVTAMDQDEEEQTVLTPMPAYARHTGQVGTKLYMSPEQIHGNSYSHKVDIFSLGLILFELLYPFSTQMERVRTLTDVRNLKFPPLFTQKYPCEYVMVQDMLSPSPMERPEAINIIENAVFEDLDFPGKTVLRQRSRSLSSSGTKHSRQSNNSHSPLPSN

Jurkat = assay: blockers of NF-kB activation in T cells – Jurkat, luciferase reporter, luminescence, B- and T-cell, dose response (AID 489004); type: functional, cell-based; settings: Homo sapiens;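 note: NF-kB luciferase reporter Jurkat cells stimulated with PMA plus ionomycin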
[29] = microbe, parasite or virus in culture; type: functional; settings: Mycobacterium tuberculosis
cells [30] = type: functional
SN12K1 = assay: cells; type: functional; settings: Homo sapiens
[31] = biological target: T1, Eukaryotic translation initiation factor 2-alpha kinase 3; assay: Dose response cell-based high-throughput screening assay to measure PERK inhibition. [Related pubchem assays: 1416 ]; type: functional
P388 = assay: cells; type: functional; settings: Mus musculus
[32] = Vero E6 cell cytotoxicity, dose response, cytotoxicity control for non-replicating M. tuberculosis project, secondary assay (AID 492998); type: functional, VeroE6; settings: Vero C1008
[33] = reduced cellular PGC1a acetyl-lysine signal – cell-based, cherry-picked samples, dose response (AID 720514); type: functional;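 note: potency may reflect raised or lowered acetylation signal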
[34] = THP-1 cell cytotoxicity, dose response, cytotoxicity control for non-replicating M. tuberculosis project (AID 489025); type: functional
[35] = HEK-293T viability loss, compound-treated – cell-based, uHTS hits, cytotoxicity control for B/T-cell NF-kB inhibitor project, dose response (AID 489019); type: functional;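 note: IC50 reflects cytotoxicity as loss of cell viability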
[36] = viability loss in A549 lung cancer cells – cell-based, cherry-picks, […], cytotoxicity control, dose response (AID 1053119); type: functional
cells [37] = settings: HEK293
[38] = viability loss in HepG2 liver cells – cell-based, ATP luminescence, cherry-pick, set 6, cytotoxicity control, dose response (AID 1053125); type: functional

Albumin, sequence (P02769 whole entry): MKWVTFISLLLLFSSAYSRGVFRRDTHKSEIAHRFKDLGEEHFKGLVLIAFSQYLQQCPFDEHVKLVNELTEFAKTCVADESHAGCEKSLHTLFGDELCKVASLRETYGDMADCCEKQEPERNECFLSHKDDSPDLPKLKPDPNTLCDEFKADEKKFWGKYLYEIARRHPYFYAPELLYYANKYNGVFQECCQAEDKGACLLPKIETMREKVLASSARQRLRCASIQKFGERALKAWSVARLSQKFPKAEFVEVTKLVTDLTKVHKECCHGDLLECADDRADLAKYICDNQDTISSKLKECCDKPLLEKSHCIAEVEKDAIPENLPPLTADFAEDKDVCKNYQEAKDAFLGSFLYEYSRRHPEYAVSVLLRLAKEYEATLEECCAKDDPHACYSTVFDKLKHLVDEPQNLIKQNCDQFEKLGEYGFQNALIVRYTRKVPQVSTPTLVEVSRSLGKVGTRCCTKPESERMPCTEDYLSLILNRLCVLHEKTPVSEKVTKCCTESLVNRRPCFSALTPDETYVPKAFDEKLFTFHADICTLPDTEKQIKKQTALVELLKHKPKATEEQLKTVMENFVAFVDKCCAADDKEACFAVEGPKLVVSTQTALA

CN=C(S)NNC(=O)c1cccn(Cc2cccc(C(F)(F)F)c2)c1=O
IC50 (Albumin): > 94100 nM (inactive)

CCN(CC)c1ccc2c(cc1=O)[C@@H](NC)CCc1cc(OC)c(OC)c(OC)c1-2
IC50 [1]: 1490 nM (active) | AC50 [2]: 2890 nM (active) | AC50 [3]: 5600 nM (active) | AC50 [4]: 3390 nM (active) | AC50 [5]: 7150 nM (active) | EC50 (BJ [6]): 1620 nM (active) | AC50 [7]: 3450 nM (active) | EC50 [8]: 953 nM (active) | EC50 [9]: 1030 nM (active) | AC50 [10]: 5950 nM (active) | EC50 (BJ [11]): 343 nM (active) | AC50 [12]: 6570 nM (active) | EC50 [13]: 350 nM (active) | EC50 (BJ [14]): 1360 nM (inconclusive) | EC50 [15]: 684 nM (active) | AC50 [16]: 1630 nM (active) | AC50 (Paired box protein Pax-8): 2900 nM (active) | EC50 (BJ [17]): 1070 nM (inconclusive) | AC50 [18]: 2730 nM (active) | AC50 [19]: 6610 nM (active) | AC50 [20]: 11700 nM (active)

O=C(O)C1CCCCC1C(=O)N1CCc2ccccc2C1CN1C(=O)[C@H]2CCCC[C@H]2C1=O (some centres undefined)
AC50 [21]: > 52000 nM (inactive)

O=C(Cc1ccc(-c2ccccc2)cc1)NC1CCCCC1
AC50 [22]: 109000 nM (active)

CC(C)(C)OC(=O)C1(CCOc2ccccc2)CCN(Cc2ccc(O)c(Cl)c2)CC1
AC50 [23]: 34000 nM (active) | AC50 [24]: 30000 nM (inactive) | AC50 [25]: 600 nM (active)

COc1ccc(C#Cc2ccc(C(=O)N3CC[C@@H](O)C3)cc2)cc1
IC50 [26]: 6340 nM (active)

COc1cccc2c1C(CO)N1C(C#N)C3CC(C(=O)O)C(C1C2)N3C (centres undefined)
GI50 (P388/ADR): < 38.4 nM (active) | CC50 [27]: 925 nM (active) | EC50 [28]: > 55700 nM (not active) | IC50 (Jurkat): 340 nM (active) | CC50 [29]: 194 nM (active) | IC50 (cells [30]): 2760 nM (active) | GI50 (SN12K1): 243 nM (active) | EC50 [31]: > 55700 nM (not active) | GI50 (P388): 416 nM (active) | CC50 [32]: 330 nM (active) | AC50 [33]: 20100 nM (active) | CC50 [34]: 153 nM (active) | IC50 [35]: > 80000 nM (inactive)

O=C(CN1CCCC1)Nc1ccc(Oc2ccc(NC(=O)CN3CCCC3)cc2)cc1
AC50 [36]: > 52000 nM (inactive)

CC/C(C)=N\Nc1nc(-c2cc3cc(OC)ccc3oc2=O)cs1
AC50 (cells [37]): > 52000 nM (inactive) | AC50 [38]: > 52000 nM (inactive)
